Experiments:
[1] = target: HPK1 (Homo sapiens (Human), UniProt Q92918); assay: biochemical; format: binding
[2] = target: HPK1 (Homo sapiens (Human), UniProt Q92918, S171E/T165E); assay: biochemical

Compound	Ki [1] [nM]	Ki [2] [nM]
Cc1c(NC(C)C)cncc1-c1cc(N)c2cnc(NC(=O)[C@@H]3C[C@H]3C#N)cc2c1 (racemic) [Compound 186, (±)-trans-N-(8-amino-6-[4-methyl-5-[(propan-2-yl)amino]pyridin-3-yl]isoquinolin-3-yl)-2-cyanocyclopropane-1-carboxamide]	6.96	
Cc1c(N)cncc1-c1cc2cc(NC(=O)[C@@H]3C[C@H]3CC#N)ncc2c(N)c1Cl (racemic) [Compound 209, (±)-trans-N-(8-amino-6-(5-amino-4-methylpyridin-3-yl)-7-chloroisoquinolin-3-yl)-2-(cyanomethyl)cyclopropanecarboxamide]	0.0405	
C[C@H]1Cc2c(cncc2-c2cc(N)c3cnc(NC(=O)C4CC4)cc3c2)N1 [Compound 189, (S)—N-(8-amino-6-(2-methyl-2,3-dihydro-1H-pyrrolo[2,3-c]pyridin-4-yl)isoquinolin-3-yl)cyclopropanecarboxamide]	5.44	

— patent publication US11566003B2, “Isoquinolines as inhibitors of HPK1” (priority 2017, dated 2023)
